In patent US10961198B2, “Farnesoid X receptor agonists and uses thereof” (Metacrine, Inc., priority 2017, dated 2021) one finds EC50 data, which are given here for 19 compounds.

This experiment deals with hFXR (Homo sapiens (Human), UniProt Q96RI1). The experiment is described as follows: In Vitro FXR Assay (TK). It is filed as cell-based. Particulars: CV-1 cells transfected with hFXR, hRXR, TK-ECRE-luc and pCMX-YFP; incubated 18 hrs; luminescence; maximum efficacy <25% of the Fexarmine control classified as '+'. How it is done:
Example B-1: In Vitro FXR Assay (TK)
CV-1 cells were seeded at a density of 2,000,000 cells in a T175 flask with DMEM+10% charcoal double-stripped FBS and incubated at 37° C. in 5% CO2 for 18 h (O/N).
After 18 h of incubation, the medium in the T175 flask was changed with fresh DMEM+10% charcoal super-stripped serum. In a polypropylene tube, 2500 μL OptiMEM (Life Technologies, Cat #31985-062) was combined with expression plasmids for hFXR, hRXR, TK-ECRE-luc and pCMX-YFP. The tube was then briefly vortexed and incubated at room temperature for 5 minutes. Transfection reagent (X-tremeGENE HP from Roche, Cat #06 366 236 001) was added to the OptiMEM/plasmid mixture vortexed and incubated at room temperature for 20 minutes. Following incubation, the transfection reagent/DNA mixture complex was added to cells in the T175 flask and the cells were incubated at 37° C. in 5% CO2 for 18 h (O/N).
Compounds were serially diluted in DMSO and added to transfected CV-1 cells. The cells were then incubated for 18 hrs. The next day cells were lysed and examined for luminescence.

Usually EC50 stands for the concentration giving half of the maximal effect. A lower EC50 goes with higher potency in that assay.

Chain of hFXR (Q96RI1 whole entry): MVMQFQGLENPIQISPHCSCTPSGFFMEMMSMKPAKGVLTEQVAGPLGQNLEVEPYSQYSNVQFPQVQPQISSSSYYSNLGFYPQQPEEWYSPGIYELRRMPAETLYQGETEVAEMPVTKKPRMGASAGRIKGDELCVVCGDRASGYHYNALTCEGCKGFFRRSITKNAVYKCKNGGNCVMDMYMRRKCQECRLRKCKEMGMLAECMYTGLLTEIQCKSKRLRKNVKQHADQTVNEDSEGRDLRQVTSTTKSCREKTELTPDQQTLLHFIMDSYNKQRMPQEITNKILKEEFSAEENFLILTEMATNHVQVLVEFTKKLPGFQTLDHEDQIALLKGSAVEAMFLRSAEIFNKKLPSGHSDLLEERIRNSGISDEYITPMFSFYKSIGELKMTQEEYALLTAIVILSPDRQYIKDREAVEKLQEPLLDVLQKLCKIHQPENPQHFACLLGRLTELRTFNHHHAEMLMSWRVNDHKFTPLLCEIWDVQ
Chain of hFXR (P19793 whole entry partner): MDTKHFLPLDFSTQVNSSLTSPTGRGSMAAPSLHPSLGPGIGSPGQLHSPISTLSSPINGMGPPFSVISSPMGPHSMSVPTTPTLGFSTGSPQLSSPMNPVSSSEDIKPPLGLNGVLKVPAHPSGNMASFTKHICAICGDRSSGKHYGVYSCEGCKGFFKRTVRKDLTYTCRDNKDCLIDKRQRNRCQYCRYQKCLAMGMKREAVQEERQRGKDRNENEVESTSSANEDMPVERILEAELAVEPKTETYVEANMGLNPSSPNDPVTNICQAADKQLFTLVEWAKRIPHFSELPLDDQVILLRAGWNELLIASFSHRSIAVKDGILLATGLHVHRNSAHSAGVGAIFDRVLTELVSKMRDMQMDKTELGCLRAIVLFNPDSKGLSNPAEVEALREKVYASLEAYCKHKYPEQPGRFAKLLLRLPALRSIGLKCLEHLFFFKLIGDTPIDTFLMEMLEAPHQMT

As for `COc1cnc([C@H]2CC[C@H](CN(c3cccc(-c4cnn(C5CC5)c4)c3)C(=O)[C@H]3CC[C@H](O)CC3)CC2)cc1C` [Compound 5.18, trans-N-(3-(1-Cyclopropyl-1H-pyrazol-4-yl)phenyl)-4-hydroxy-N-((trans-4-(5-methoxy-4-methylpyridin-2-yl)cyclohexyl)methyl)cyclohexanecarboxamide], the EC50 is 250 to 1000 nM.
The result for `COc1ccc([C@H]2CC[C@H](CN(c3cc(-c4cnn(C(C)C)c4)ccn3)C(=O)[C@H]3CC[C@H](O)CC3)CC2)nc1C` [Compound 5.19, trans-4-Hydroxy-N-(4-(1-isopropyl-1H-pyrazol-4-yl)pyridin-2-yl)-N-((trans-4-(5-methoxy-6-methylpyridin-2-yl)cyclohexyl)methyl)cyclohexanecarboxamide] reads at most 250 nM; that for `COc1ccc([C@H]2CC[C@H](CN(c3cc(-c4cnn(C(C)C)c4)ccn3)C(=O)[C@H]3CC[C@H](O)CC3)CC2)nc1C#N` [Compound 5.20, trans-N-((trans-4-(6-Cyano-5-methoxypyridin-2-yl)cyclohexyl)methyl)-4-hydroxy-N-(4-(1-isopropyl-1H-pyrazol-4-yl)pyridin-2-yl)cyclohexanecarboxamide], 250 to 1000 nM; that for `Cn1ccc2cc([C@H]3CC[C@H](CN(c4cccc(-c5cnn(C6CC6)c5)c4)C(=O)[C@H]4CC[C@H](O)CC4)CC3)ncc21` [Compound 5.21, trans-N-(3-(1-Cyclopropyl-1H-pyrazol-4-yl)phenyl)-4-hydroxy-N-((trans-4-(1-methyl-1H-pyrrolo[2,3-c]pyridin-5-yl)cyclohexyl)methyl)cyclohexanecarboxamide], at least 1000 nM.
In turn, `COc1ccc([C@H]2CC[C@H](CN(c3cc(-c4cnn(C5CC5)c4)ccn3)C(=O)[C@H]3CC[C@H](O)CC3)CC2)nc1C#N` [Compound 5.22, trans-N-((trans-4-(6-Cyano-5-methoxypyridin-2-yl)cyclohexyl)methyl)-N-(4-(1-cyclopropyl-1H-pyrazol-4-yl)pyridin-2-yl)-4-hydroxycyclohexanecarboxamide] showed an EC50 of 250 to 1000 nM.
Regarding `COc1ccc([C@H]2CC[C@H](CN(c3cccc(-c4cnn(C(C)C)c4)c3)C(=O)[C@H]3CC[C@H](O)CC3)CC2)nc1C#N` [Compound 5.23, trans-N-((trans-4-(6-Cyano-5-methoxypyridin-2-yl)cyclohexyl)methyl)-4-hydroxy-N-(3-(1-isopropyl-1H-pyrazol-4-yl)phenyl)cyclohexanecarboxamide], the EC50 is at most 250 nM.
Next, `COc1ccc([C@H]2CC[C@H](CN(C(=O)C3CCCCC3)c3cccc(-c4cnn(C5CC5)c4)c3)CC2)cc1C` [Compound 5.24, N-(3-(1-Cyclopropyl-1H-pyrazol-4-yl)phenyl)-N-((trans-4-(4-methoxy-3-methylphenyl)cyclohexyl)methyl)cyclohexanecarboxamide]: at most 250 nM; `COc1ccc(C2CCC(CN(c3cccc(-c4cnn(C5CC5)c4)c3)C(=O)[C@H]3CC[C@@H](O)CC3)CC2)cc1C` (stereo partly drawn) [Compound 5.25, cis-N-(3-(1-Cyclopropyl-1H-pyrazol-4-yl)phenyl)-4-hydroxy-N-((4-(4-methoxy-3-methylphenyl)cyclohexyl)methyl)cyclohexanecarboxamide]: at most 250 nM.
`COc1ccc([C@H]2CC[C@H](CN(c3cc(-c4cnn(C5CC5)c4)cc(C)n3)C(=O)[C@H]3CC[C@H](O)CC3)CC2)cc1C` [Compound 5.26, trans-N-(4-(1-cyclopropyl-1H-pyrazol-4-yl)-6-methylpyridin-2-yl)-4-hydroxy-N-((trans-4-(4-methoxy-3-methylphenyl)cyclohexyl)methyl)cyclohexanecarboxamide]: the EC50 lay in the range of 250 to 1000 nM.
The result for `COc1ccc([C@H]2CC[C@H](CN(c3cccc(-c4cnn(C(C)C)c4)c3)C(=O)[C@H]3CC[C@](C)(O)CC3)CC2)cc1C` [Compound 5.27, (1r,4r)-4-Hydroxy-N-(3-(1-isopropyl-1H-pyrazol-4-yl)phenyl)-N-((trans-4-(4-methoxy-3-methylphenyl)cyclohexyl)methyl)-4-methylcyclohexanecarboxamide] reads at most 250 nM; that for `COc1ccc([C@H]2CC[C@H](CN(c3cccc(-c4cnn(C(C)C)c4)c3)C(=O)[C@H]3CC[C@@](C)(O)CC3)CC2)cc1C` [Compound 5.28, (1s, 4s)-4-Hydroxy-N-(3-(1-isopropyl-1H-pyrazol-4-yl)phenyl)-N-((trans-4-(4-methoxy-3-methylphenyl)cyclohexyl)methyl)-4-methylcyclohexanecarboxamide], at most 250 nM.
Next, `COc1ncc([C@H]2CC[C@H](CN(c3cc(-c4cnn(C(C)C)c4)ccn3)C(=O)[C@H]3CC[C@H](O)CC3)CC2)cc1C` [Compound 5.29, trans-4-Hydroxy-N-(4-(1-Isopropyl-1H-pyrazol-4-yl)pyridin-2-yl)-N-((trans-4-(6-methoxy-5-methylpyridin-3-yl)cyclohexyl)methyl)cyclohexanecarboxamide]: at most 250 nM; `COc1ncc([C@H]2CC[C@H](CN(c3cc(-c4cnn(C(C)C)c4)ccn3)C(=O)[C@H]3CC[C@H](O)CC3)CC2)cc1Cl` [Compound 5.30, trans-N-((trans-4-(5-Chloro-6-methoxypyridin-3-yl)cyclohexyl)methyl)-4-hydroxy-N-(4-(1-isopropyl-1H-pyrazol-4-yl)pyridin-2-yl)cyclohexanecarboxamide]: at most 250 nM; `COc1ccc(C23CCC(CN(c4cccc(-c5cnn(C6CC6)c5)c4)C(=O)[C@H]4CC[C@H](O)CC4)(CC2)CC3)cc1C` [Compound 6, trans-N-(3-(1-Cyclopropyl-1H-pyrazol-4-yl)phenyl)-4-hydroxy-N-((4-(4-methoxy-3-methylphenyl)bicyclo[2.2.2]octan-1-yl)methyl)cyclohexanecarboxamide]: at most 250 nM.
The result for `CN(C)c1ccc(C23CCC(CN(c4cccc(-c5cnn(C6CC6)c5)c4)C(=O)[C@H]4CC[C@H](O)CC4)(CC2)CC3)cn1` [Compound 6.01, trans-N-(3-(1-Cyclopropyl-1H-pyrazol-4-yl)phenyl)-N-((4-(6-(dimethylamino)pyridin-3-yl)bicyclo[2.2.2]octan-1-yl)methyl)-4-hydroxycyclohexanecarboxamide] reads at most 250 nM; that for `COc1ccc(C23CCC(CN(c4cccc(-c5cnn(C(C)C)c5)c4)C(=O)[C@H]4CC[C@H](O)CC4)(CC2)CC3)cc1C` [Compound 6.02, trans-4-Hydroxy-N-(3-(1-isopropyl-1H-pyrazol-4-yl)phenyl)-N-((4-(4-methoxy-3-methylphenyl)bicyclo[2.2.2]octan-1-yl)methyl)cyclohexanecarboxamide], at most 250 nM; that for `COc1ccc([C@H]2CC[C@H](CN(c3cccc(-c4cnn(C(C)C)c4)c3)C(=O)[C@H]3CC[C@H](N)CC3)CC2)cc1C` [Compound 7, trans-4-Amino-N-(3-(1-isopropyl-1H-pyrazol-4-yl)phenyl)-N-((trans-4-(4-methoxy-3-methylphenyl)cyclohexyl)methyl)cyclohexanecarboxamide], at least 1000 nM.
`COc1ccc(C23CCC(CN(c4cccc(-c5cnn(C6CC6)c5)c4)C(=O)[C@H]4CC[C@H](N)CC4)(CC2)CC3)cc1C` [Compound 7.01, trans-4-Amino-N-(3-(1-cyclopropyl-1H-pyrazol-4-yl)phenyl)-N-((4-(4-methoxy-3-methylphenyl)bicyclo[2.2.2]octan-1-yl)methyl)cyclohexanecarboxamide]: the EC50 lay in the range of 250 to 1000 nM.
Next, `Cc1cc([C@H]2CC[C@H](CN(c3cccc(-c4cnn(C5CC5)c4)c3)C(=O)[C@H]3CC[C@H](O)CC3)CC2)ccc1O` [Compound 8, trans-N-(3-(1-Cyclopropyl-1H-pyrazol-4-yl)phenyl)-4-hydroxy-N-((trans-4-(4-hydroxy-3-methylphenyl)cyclohexyl)methyl)cyclohexanecarboxamide]: 250 to 1000 nM.
